Measured values from patent US11466005B2, “Tricyclic compounds” (JACOBIO PHARMACEUTICALS CO., LTD., priority 2018, dated 2022).

Legend:
[1] = molecular target: BRD4(BD1) (Homo sapiens (Human), UniProt O60885); assay: BRD4(BD1) biochemical binding assay (HTRF); settings: biotinylated H4 derived acetylated peptide
Protocol: 1. BRD4(BD1) Binding Assays
The BRD4(BD1) biochemical binding assay was performed by Sundia MediTech Co. Ltd. in 384-well white plate (OptiPlate-384, PerkinElmer) using HTRF technology.
Briefly, 20 nL of compounds were transferred to the 384-well plate by Echo® 550 liquid handler (Labcyte, USA), then 5 μL of BRD4(BD1) (Reaction Biology Company, RD-11-157) solution or the assay buffer was added to each well. After incubating at RT for 15 min, 5 μL of the biotinylated H4 derived acetylated peptide (synthesized by GL Biochem (Shanghai) Ltd) and 10 μL of the detection solution (Cisbio Assay) were added to each well. After incubating for 1 h at RT, the HTRF signal was measure at 615 nm and 665 nm using the EnVision Multilabel Plate Reader (PerkinElmer, USA). Results were analyzed with a two-wavelength signal ratio: intensity (665 nm)/intensity (615 nm). The inhibition percentage in the presence of the compound was calculated according to the equation, Percent inhibition=(Max−Signal)/(Max−Min)*100%. Fit the data in GraphPad Prism V5.0 software (San Diego, Calif.) to obtain IC50 values with nonlinear regression analysis using equation, Y=Bottom+(Top−Bottom)/(1+10^((Log IC50−X)×HillSlope), where Y stands for inhibition percentage and X stands for compound concentration.

[2] = test system: MV-4-11 cells; assay: MV-4-11 cell proliferation assay (MTS); format: cell-based; settings: Homo sapiens, MV4-11, 72 h, 3 days culture
Protocol: 2. Cell Proliferation Assay
MV-4-11 cell proliferation analysis was conducted by the MIS (3-(4,5-dimethylthiazol-2-yl)-5-(3-carboxymethoxyphenyl)-2-(4-sulfophenyl)-2H-tetrazolium, inner salt) assay. Briefly, MV-4-11 cells will be cultured in IMDM (Iscove's Modified Dubecco's Medium) medium supplemented with 10% (v/v) FBS (fetal bovine serum), under the temperature of 37° C., […] and 95% humidity. The cells will be harvested respectively during the logarithmic growth period and counted with hemocytometer. The cell viability is over […] by trypan blue exclusion. Adjust MV-4-11 cells concentrations to 1.2×10^5 cells/mL with complete medium. Add 100 μL cell suspensions to 96-well plates (triplicates for each cell concentration), the final cell densities are 1.2×10^4 cells/well. The next day, dissolve the test compound with DMSO as stock solution. Dispense 5 μL of the stock solution in 1 mL culture media and add 25 μL drug media into 96-well plates. After serially diluting with culture media, the final concentration of the compound will be 0, 0.03, 0.1, 0.3, 1, 3, 10, 30, 100 nM. The plates will be cultured for 3 days, then measured by means of MTS assay. Add PMS (phenazinium methosulfate) solution to MITS solution (1:20) immediately before addition to the culture plate containing cells. Pipet 20 μL of the combined MTS/PMS Solution into each well of the 96 well assay plate containing 100 μL of cells in culture medium. Incubate the plate for 1-4 hours at 37° C. in a humidified, 5% CO2 atmosphere. Record the absorbance at 490 nm using a microplate spectrophotometer (Envision®, PeikinElmer). Fit the data using GraphPad 5.0 and obtain IC50 values.

SMILES	IC50 [1]	IC50 [2]
Cc1nnn(C)c1-c1cnc2c3c(c(C(C)(C)O)nn3C)n(C(CCC(F)(F)F)c3ccccc3)c2c1 (centres unmarked) [Compound 3, 2-(6-(1,4-Dimethyl-1H-1,2,3-triazol-5-yl)-1-methyl-4-(4,4,4-trifluoro-1-phenylbutyl)-1,4-dihydropyrazolo[3′,4′:4,5]pyrrolo[3,2-b]pyridin-3-yl)propan-2-ol]	0.66 nM	6.06 nM
Cc1nnn(C)c1-c1cnc2c3c(c(C(C)(C)O)nn3C)n(C(CCC(F)(F)F)c3ncccc3F)c2c1 (centres unmarked) [Compound 4, 2-(6-(1,4-Dimethyl-1H-1,2,3-triazol-5-yl)-1-methyl-4-(4,4,4-trifluoro-1-(3-fluoropyridin-2-yl)butyl)-1,4-dihydropyrazolo[3′,4′:4,5]pyrrolo[3,2-b]pyridin-3-yl)propan-2-ol]	0.57 nM	3.13 nM
Cc1nnn(C)c1-c1cnc2c3c(c(C(C)(C)O)nn3C)n([C@H](c3ccccc3)C3CCOCC3)c2c1 [Compound 6, (S)-2-(6-(1,4-dimethyl-1H-1,2,3-triazol-5-yl)-1-methyl-4-(phenyl(tetrahydro-2H-pyran-4-yl)methyl)-1,4-dihydropyrazolo[3′,4′:4,5]pyrrolo[3,2-b]pyridin-3-yl)propan-2-ol]	0.49 nM	1.1 nM
COC(=O)c1nn(C)c2c3ncc(-c4c(C)nnn4C)cc3n([C@H](c3ncccc3F)C3CCOCC3)c12 [Compound 7-2, (S)-Methyl 6-(1,4-dimethyl-1H-1,2,3-triazol-5-yl)-4-((3-fluoropyridin-2-yl)(tetrahydro-2H-pyran-4-yl)methyl)-1-methyl-1,4-dihydropyrazolo[3′,4′:4,5]pyrrolo[3,2-b]pyridine-3-carboxylate]	–	1.11 nM
Cc1nnn(C)c1-c1cnc2c3c(c(C(C)(C)O)nn3C)n(C(CCC(F)(F)F)c3cocn3)c2c1 (centres unmarked) [Compound 10, 2-(6-(1,4-dimethyl-1H-1,2,3-triazol-5-yl)-1-methyl-4-(4,4,4-trifluoro-1-(oxazol-4-yl)butyl)-1,4-dihydropyrazolo[3′,4′:4,5]pyrrolo[3,2-b]pyridin-3-yl)propan-2-ol]	2.2 nM	34 nM
Cc1nnn(C)c1-c1cnc2c3c(c(C(N)=O)nn3C)n(C(c3ncccc3F)C3CCOCC3)c2c1 (centres unmarked) [Compound 21, 6-(1,4-Dimethyl-1H-1,2,3-triazol-5-yl)-4-((3-fluoropyridin-2-yl)(tetrahydro-2H-pyran-4-yl)methyl)-1-methyl-1,4-dihydropyrazolo[3′,4′:4,5]pyrrolo[3,2-b]pyridine-3-carboxamide]	–	0.77 nM
COc1ccncc1C(C1CCOCC1)n1c2cc(-c3c(C)nnn3C)cnc2c2c1c(C(C)(C)O)nn2C (centres unmarked) [Compound 25, 2-(6-(1,4-dimethyl-1H-1,2,3-triazol-5-yl)-4-((4-methoxypyridin-3-yl)(tetrahydro-2H-pyran-4-yl)methyl)-1-methyl-1,4-dihydropyrazolo[3′,4′:4,5]pyrrolo[3,2-b]pyridin-3-yl)propan-2-ol]	–	8.25 nM
Cc1cc(F)cc(C)c1C(C)n1c2cc(-c3c(C)nnn3C)cnc2c2c1c(C(C)(C)O)nn2C (centres unmarked) [Compound 27, 2-(6-(1,4-Dimethyl-1H-1,2,3-triazol-5-yl)-4-(1-(4-fluoro-2,6-dimethylphenyl)ethyl)-1-methyl-1,4-dihydropyrazolo[3′,4′:4,5]pyrrolo[3,2-b]pyridin-3-yl)propan-2-ol]	17 nM	–
Cc1nnn(C)c1-c1cnc2c3c(c(NS(C)(=O)=O)nn3C)n([C@H](c3ccccc3)C3CCOCC3)c2c1 [Compound 28, (S)—N-(6-(1,4-dimethyl-1H-1,2,3-triazol-5-yl)-1-methyl-4-(phenyl(tetrahydro-2H-pyran-4-yl)methyl)-1,4-dihydropyrazolo[3′,4′:4,5]pyrrolo[3,2-b]pyridin-3-yl)methanesulfonamide]	–	10.5 nM
Cc1nnn(C)c1-c1cnc2c3c(c(CS(C)(=O)=O)nn3C)n(C(c3ccccc3)C3CCOCC3)c2c1 (centres unmarked) [Compound 33, 6-(1,4-dimethyl-1H-1,2,3-triazol-5-yl)-1-methyl-3-((methylsulfonyl)methyl)-4-(phenyl(tetrahydro-2H-pyran-4-yl)methyl)-1,4-dihydropyrazolo[3′,4′:4,5]pyrrolo[3,2-b]pyridine]	4.67 nM	–
CC(=O)N(c1nn(C)c2c3ncc(-c4c(C)nnn4C)cc3n(C(c3ccccc3)C3CCOCC3)c12)S(C)(=O)=O (centres unmarked) [Compound 35, N-(6-(1,4-dimethyl-1H-1,2,3-triazol-5-yl)-1-methyl-4-(phenyl(tetrahydro-2H-pyran-4-yl)methyl)-1,4-dihydropyrazolo[3′,4′:4,5]pyrrolo[3,2-b]pyridin-3-yl)-N-(methylsulfonyl)acetamide]	–	15.5 nM

The remaining lines, values ahead:

IC50 [1]	IC50 [2]	SMILES
0.48 nM	0.89 nM	Cc1noc(C)c1-c1cnc2c3c(c(C(C)(C)O)nn3C)n([C@H](c3ccccc3)C3CCOCC3)c2c1 [Compound 1, (S)-2-(6-(3,5-dimethylisoxazol-4-yl)-1-methyl-4-(phenyl(tetrahydro-2H-pyran-4-yl)methyl)-1,4-dihydropyrazolo[3′,4′:4,5]pyrrolo[3,2-b]pyridin-3-yl)propan-2-ol]
0.35 nM	0.72 nM	Cc1noc(C)c1-c1cnc2c3c(c(C(C)(C)O)nn3C)n([C@H](c3ncccc3F)C3CCOCC3)c2c1 [Compound 2, (S)-2-(6-(3,5-dimethylisoxazol-4-yl)-4-((3-fluoropyridin-2-yl)(tetrahydro-2H-pyran-4-yl)methyl)-1-methyl-1,4-dihydropyrazolo[3′,4′:4,5]pyrrolo[3,2-b]pyridin-3-yl)propan-2-ol]
0.59 nM	1.24 nM	Cc1cccnc1C(C1CCOCC1)n1c2cc(-c3c(C)nnn3C)cnc2c2c1c(C(C)(C)O)nn2C (centres unmarked) [Compound 5, 2-(6-(1,4-Dimethyl-1H-1,2,3-triazol-5-yl)-1-methyl-4-((3-methylpyridin-2-yl)(tetrahydro-2H-pyran-4-yl)methyl)-1,4-dihydropyrazolo[3′,4′:4,5]pyrrolo[3,2-b]pyridin-3-yl)propan-2-ol]
0.97 nM	0.7 nM	Cc1nnn(C)c1-c1cnc2c3c(c(C(C)(C)O)nn3C)n([C@H](c3ncccc3F)C3CCOCC3)c2c1 [Compound 7, (S)-2-(6-(1,4-dimethyl-1H-1,2,3-triazol-5-yl)-4-((3-fluoropyridin-2-yl)(tetrahydro-2H-pyran-4-yl)methyl)-1-methyl-1,4-dihydropyrazolo[3′,4′:4,5]pyrrolo[3,2-b]pyridin-3-yl)propan-2-ol]
12 nM	31.6 nM	Cc1cccnc1C(C1CCOCC1)n1c2cc(-c3c(C)noc3C)cnc2c2c1c(C(C)(C)O)nn2C (centres unmarked) [Compound 8, 2-(6-(3,5-dimethylisoxazol-4-yl)-1-methyl-4-((3-methylpyridin-2-yl)(tetrahydro-2H-pyran-4-yl)methyl)-1,4-dihydropyrazolo[3′,4′:4,5]pyrrolo[3,2-b]pyridin-3-yl)propan-2-ol]
0.99 nM	5.01 nM	Cc1ccccc1C(C1CCOCC1)n1c2cc(-c3c(C)noc3C)cnc2c2c1c(C(C)(C)O)nn2C (centres unmarked) [Compound 9, 2-(6-(3,5-dimethylisoxazol-4-yl)-1-methyl-4-((tetrahydro-2H-pyran-4-yl)(o-tolyl)methyl)-1,4-dihydropyrazolo[3′,4′:4,5]pyrrolo[3,2-b]pyridin-3-yl)propan-2-ol]
3 nM	–	Cc1nnn(C)c1-c1cnc2c3c(c(C(C)(C)O)nn3C)n([C@@H](c3ncccc3F)C3CCOCC3)c2c1 [Compound 30, (R)-2-(6-(1,4-dimethyl-1H-1,2,3-triazol-5-yl)-4-((3-fluoropyridin-2-yl)(tetrahydro-2H-pyran-4-yl)methyl)-1-methyl-1,4-dihydropyrazolo[3′,4′:4,5]pyrrolo[3,2-b]pyridin-3-yl)propan-2-ol]
4.6 nM	–	Cc1noc(C)c1-c1cnc2c3c(c(C(C)(C)O)nn3C)n([C@@H](c3ncccc3F)C3CCOCC3)c2c1 [Compound 31, (R)-2-(6-(3,5-dimethylisoxazol-4-yl)-4-((3-fluoropyridin-2-yl)(tetrahydro-2H-pyran-4-yl)methyl)-1-methyl-1,4-dihydropyrazolo[3′,4′:4,5]pyrrolo[3,2-b]pyridin-3-yl)propan-2-ol]
